Experimental data published in patent publication US20230381196A1, “COMPOSITIONS COMPRISING BISFLUOROALKYL-1,4-BENZODIAZEPINONE COMPOUNDS FOR TREATING ADENOID CYSTIC CARCINOMA” (AYALA PHARMACEUTICALS INC., priority 2020, published 2023).

Key:
ACC83 cells = assay: Boyden chamber invasion assay; format: cell-based, Human; settings: 10 nM for 14 days, 24 h transwell
Method: FIG. 11C. Effect of Compound (1) monotherapy on cell invasion in ACC83 cell line. ACC83 cells were treated with either 10 nM Compound (1) or DMSO (control) for 14 days. Cells were then placed transwell chambers and after 24 h, the membranes were stained with crystal violet. Cells that had migrated through the membrane were photographed (left panel) and counted. The average number of ACC83 cells per field that migrated through the membrane are shown in a bar plot (right panel).
Methods: A wound healing assay was carried out to assess migration potential of ACC83 and ACC112 cells. Cells were cultured in triplicate in 6-well plates (1×10^6 cells per well) containing culture inserts (Ibidi). On reaching 90% confluence, the inserts were removed, and cells were cultured for 12 hr. Gap area in individual wells was determined using ImageJ. The gap area percentage was calculated as the gap area at 12 hr relative to the gap area at 0 hr. A Boyden chamber assay was carried out to assess the invasion potential of ACC83 and ACC112 cells. […] After 24 h incubation, the cells in the upper chamber were carefully removed with cotton swab, and the cells that had invaded through Matrigel were stained with 1DiffQuick, photographed at 40× magnification and quantified across three random fields.

[1] = system: recurrent or metastatic ACC with Notch-activating mutations; assay: Phase 2 trial of Compound (1) in ACC with Notch-activating mutations: response; format: in vivo, human; settings: 4 mg IV once weekly
From the text: FIG. 1. Schema and Baseline Characteristics. Subjects enrolled in the Phase 2 Clinical Trial had (1) Recurrent/metastatic (R/M) adenoid cystic carcinoma (ACC); (2) Notch-activating mutations; (3) Disease progression within prior 6 months, and (4) Eastern Cooperative Oncology Group (ECOG) score <2 (Fully active; no performance restrictions. 1. Strenuous physical activity restricted; fully ambulatory and able to carry out light work. 2. Capable of all self-care but unable to carry out any work activities). Cohort 1 was administered Compound (1) QW at a dose of 4 mg (n=45), and Cohort 2 will be administered Compound (1) QW at a dose of 6 mg (n=42). The primary endpoint is ORR per RECIST v1.1 or modified MDA Bone Response Criteria, by Investigator. Secondary endpoints include Duration of Response (DoR), Progression-Free Survival (PFS), Overall Survival (OS), Safety, and PharmacoKinetics (PKs). The study was conducted in North America, Europe and Israel. aData cutoff: Jul. 30, 2020. ^bSubjects may select more than one category. MDA, M D Anderson.
FIG. 2. Best Overall Responses by Investigator Review (n=40)^a. Subjects were administered 4 mg Compound (1) once per week. The percent change in the tumor diameter is presented for individual subjects. Subjects with Partial Response (PR) are marked in yellow; Stable disease (SD) in dark blue; Progressive Disease (PD) in gray; and Not Evaluable (NE) in black. *confirmed responses.
A Phase 2, Simon 2-Stage optimal design, non-comparative, open-label, single-arm, multicenter study of Compound (1) was conducted in subjects with recurrent or metastatic (RIM) ACC (bone-exclusive disease allowed) who harbor Notchl, Notch2, Notch3, or Notch4 activating mutations (Notch1-4′ nn. Subjects with disease progression ≤6 months of enrollment or newly diagnosed metastatic disease were allowed.
Subjects with known activating Notch mutations, per NGS test results gave their informed consent and underwent screening assessments to determine study eligibility over a 28-day screening period. Available mutation status from prior tests with any commercially available or locally developed NGS assay were acceptable. Any newly characterized mutation (such as tandem duplication, variant allele frequency etc.), was evaluated with the sponsor on a case-by-case basis.
Starting on Cycle 1, Day 1, eligible subjects enrolled in the study received Compound (1), 4 mg intravenously (IV) weekly (qwk), on Days 1, 8, 15, and 22 of each 28-day cycle until disease progression, unacceptable toxicity, or consent withdrawal. Paired tumor biopsies were collected at screening (fresh or archival within 5 years) and upon confirmation of disease progression (provided medically safe and not contraindicated). Samples were sent to a central vendor for NGS analysis. Formalin-fixed paraffin embedded (FFPE) slides were evaluated by IHC for NICDI stain.
During the treatment period, subjects underwent radiographic assessments every 8 weeks (±3 days) for review by Independent Central Review (ICR) as well as by the Investigator. Other assessments performed included safety exploratory biomarkers.
Compound (1) is a potent and selective inhibitor of gamma secretase-mediated Notch signaling. Compound (1) was administered IV at the dose of 4 mg every 7 days (1 day; QW) over 28-day cycles until disease progression, unacceptable toxicity, or consent withdrawal. Compound (1) injection was developed as a single-use sterile solution (1.2 mg/mL; […]) for IV administration in clinical studies; each vial contained 5 mL (equivalent of 6 mg per vial). It was formulated as a sterile concentrate containing Cremophor and ethanol and was diluted with 0.9% Sodium Chloride injection, USP (normal saline) or 5% Dextrose Injection, USP (D5W) to concentrations between 0.01 mg/mL and 0.06 mg/mL. […]

Notch4 = assay: Inhibition of Constitutive Notch Signaling; format: cell-based
Notch3 = assay: Inhibition of Constitutive Notch Signaling; format: cell-based

CN1C(=O)[C@@H](NC(=O)[C@H](CCC(F)(F)F)[C@H](CCC(F)(F)F)C(N)=O)N=C(c2ccccc2)c2ccccc21 [Compound (1), (2R,3S)—N-((3S)-1-methyl-2-oxo-5-phenyl-2,3-dihydro-1H-1,4-benzodiazepin-3-yl)-2,3-bi s(3,3,3-trifluoropropyl)succinamide]
cell invasion (ACC83 cells): substantially decreased the invasion | partial responses achieved by week 16 [1]: 5 out of 6 | subjects in the study for at least 24 weeks or still in the study not yet having reached 24 weeks ([1]; 16 out of 40): 40% | Missing/NE, best overall response (unconfirmed) ([1]; by investigator, n=40): 3% (1) | PD, best overall response (unconfirmed) ([1]; by investigator, n=40): 30% (12) | PR, best overall response (unconfirmed) ([1]; by investigator, n=40): 15% (6) | overall response rate ([1]; by investigator, n=40): 15% | radiographic scans, baseline vs beginning of Cycle 3 (Week 8) ([1]; 4 subjects who achieved partial response): tumor shrinkage | IC50 (Notch4): 2.9 nM | IC50 (Notch3): 3.4 nM
